The values that follow come from patent US10555986B2, “Dietary supplement derived from natural prodcuts by hot melt extrusion (HME) processing” (INSTITUTO DE CAPACITACIÓN E INVESTIGACIÓN DEL PLÁS, priority 2017, dated 2020).

Data set [1] can be described thus: release profile of (−)-Epicatechin in artificial saliva at pH 6.2 and 23° C. The class given is physicochemical. Particulars: artificial saliva pH 6.2, 23° C. As for the experimental part:
FIG. 20 describes the release profile of (−)-Epicatechin in artificial saliva at pH 6.2 and 23° C. for examples X to XIII with a particle size distribution between 250 μm and 425 μm (Mesh 40).
FIG. 21 illustrates the release profile of (−)-Epicatechin in artificial saliva at pH 6.2 and 23° C. for EXAMPLE X to XIII with a particle size distribution between 180 μm and 250 μm (Mesh 60).

Data set [2] in a line: release profile of (−)-Epicatechin, 2 hour in medium pH 1.2 and 2 more hours in medium pH 6.8, at 37° C. The class given is physicochemical. As for the experimental part: Releases for EXAMPLES I TO V.
FIG. 22 features release profile of (−)-Epicatechin at 2 hour in a medium with pH of 1.2 and 2 more hours in a medium with pH of 6.8, at 37° C. Releases for examples X to XIII with a particle size distribution between 250 μm and 425 μm (Mesh 40); and particle size distribution between 180 μm and 250 μm (Mesh 60).

The conditions of data set [3]: background statement; cited from earlier work.
For data set [4] the following is noted: after permanent coronary occlusion; background statement; cited from earlier work.
The conditions of data set [5]: relative to mannitol; background statement; cited from earlier work.

As for `Oc1cc(O)c2c(c1)O[C@H](c1ccc(O)c(O)c1)[C@H](O)C2` [EPICATECHIN AT 90%, (−)-Epicatechin (2R,3R)], the “% release” value in data set [1] (30 s) was 75.30%; in data set [1] (60 s), 88.70%; in data set [1] (120 s) it was 93.43%; in data set [2] (1 h, medium pH 1.2, 37° C.) it was 98.59%; in data set [2] (2 h, medium pH 1.2, 37° C.), 99.94%; in data set [2] (3 h, 2 h pH 1.2 then medium pH 6.8, 37° C.) it was 100.22%. In addition, the “% release” value in data set [2] (4 h, 2 h pH 1.2 then medium pH 6.8, 37° C.) stood at 100.84%. In addition, the release profile percentages in data set [1] (30 s, Table 13) worked out at 75.30%; in data set [1] (30 s, Table 14), 75.30%; in data set [1] (60 s, Table 13) it was 88.70%; in data set [1] (60 s, Table 14) it was 88.70%; in data set [1] (120 s, Table 13), 93.43%; in data set [1] (120 s, Table 14), 93.43%. Moreover, the release profile percentages in data set [2] (1 h, medium pH 1.2, 37° C., Table 13) worked out at 98.59%; in data set [2] (1 h, medium pH 1.2, 37° C., Table 14) it was 98.59%; in data set [2] (2 h, medium pH 1.2, 37° C., Table 13), 99.94%; in data set [2] (2 h, medium pH 1.2, 37° C., Table 14), 99.94%; in data set [2] (3 h, 2 h pH 1.2 then pH 6.8, 37° C., Table 13), 100.22%; in data set [2] (3 h, 2 h pH 1.2 then pH 6.8, 37° C., Table 14) it was 100.22%. The release profile percentages is listed as 100.84% in data set [2] (4 h, 2 h pH 1.2 then pH 6.8, 37° C., Table 13) and 100.84% in data set [2] (4 h, 2 h pH 1.2 then pH 6.8, 37° C., Table 14). In data set [3], the oral bioavailability result is “less than 5%”. Further, the “reduction in scar (infarct) size” value in data set [4] is recorded as “approximately 33%”. Moreover, the “quenches OH more effectively than mannitol” value in data set [5] is reported as 100 times.
